From patent publication US4454158A, “Allyl amine MAO inhibitors” (Merrell Toraude et Compagnie, priority 1981, dated 1984)
Where two headings read alike, the source gives them in different places.

How the values were obtained:
MAO [1] = assay: Inhibition of MAO - In vitro (14C p-tyramine substrate, partially purified rat brain mitochondria); format: biochemical; details: tested as hydrochloride salt, read-out: IC50 (MAO inhibitory activity - In vitro)
Source text: (A) The ability of a compound of Formula I or II to inhibit MAO can be determined in vitro by the method of A. Christmas et al, Br. J. Pharmacol. 45, 490 (1972) in partially purified mitochondria from rat brain using ^14 C p-tyramine as the substrate.

MAO-B versus MAO-A = details: literature figure; cited from earlier work
MAO-A and MAO-B = details: literature, cited from earlier work
depression = details: literature; cited from earlier work
MAO [2] = assay: Time-dependence and reversibility of MAO inhibition (rat brain mitochondria, 14C p-tyramine); format: biochemical; details: phosphate buffer pH 7.2, 14C p-tyramine
Description: (B) The compounds of Formula I or II can be tested to determine whether or not the MAO inhibition follows time-dependent kinetics by the procedure described below:
Mitochondria are prepared from rat brain by homogenation in phosphate buffer (0.1 M, pH 7.2) followed by differential centrifugation. The mitochondria are suspended in the same buffer, the test compound is added at the desired concentration, and the system is incubated. At different time intervals, aliquots are taken and MAO activity is measured using ^14 C p-tyramine (a mixed substrate) as the substrate (See A. Christmas, et al, supra). When the compounds shown in Table I were tested according to the above-described procedure, the MAO inhibitory activity increased as a function of time of incubation. The initial rate of decrease of activity increased with increasing concentration of inhibitor.

MAO [3] = assay: Inhibition of MAO - Ex vivo, rat (14C p-tyramine substrate); format: in vivo; details: for % Inhibition of MAO - Brain: 18 hr
Description: The ability of a compound of Formula I or II to inhibit MAO can be determined ex vivo by the following procedure:
The test compound is administered intraperitoneally (ip), intravenously (iv), or orally (po) to rats or mice and the animals are killed at various times after treatment. […] MAO activity is determined in the homogenates using ^14 C p-tyramine, as the substrate. […] Selectivity can be determined by repeating the above-described test using either ^14 C 5-hydroxytryptamine (for MAO-A) or ^14 C phenethylamine (for MAO-B) as the substrate for determining the % inhibition

[4] = test system: heart rate response to p-tyramine; details: rat, in vivo, iv
Description: (§1) The following test procedure can be employed to assess the potential of a compound of Formula I or II for producing the "cheese effect":
(§2) Rats are administered an intravenous injection of the test compound at various dosage levels, and 30 minutes later the rats are challenged with several intravenous or intraduodenal dodes of p-tyramine. The heart rate response is measured.

[5] = test system: heart rate response to p-tyramine; assay: Cheese effect: potentiation of heart-rate response to p-tyramine in rats; details: rat, dose 0.1 (iv), p-tyramine i.d.
Description: as §1, §2

| Compound | IC50 (MAO [1]) [nM] | Selectivity (ratio of inhibitory activity against MAO-B versus MAO-A) (MAO-B versus MAO-A) | preferential inhibition of MAO-A or MAO-B (in words) (MAO-A and MAO-B) | dose-dependence of MAO selectivity (in words) (MAO-A and MAO-B; lower vs higher dosages) | clinical effectiveness as antidepressant (in words) (depression) | time-dependent inhibitory kinetics (MAO [2]) | % Inhibition of MAO - Duodenum (MAO [3]; 0.1 mg/kg iv, 2 hr) [%] | % Inhibition of MAO - Heart (MAO [3]; 0.1 mg/kg iv, 2 hr) [%] | % Inhibition of MAO - Brain (MAO [3]; 1.0 mg/kg po) [%] | % Inhibition of MAO - Brain (MAO [3]; 5.0 mg/kg po) [%] | Potentiation of heart-rate response to p-tyramine [4] [fold] | Potentiation of heart-rate response to p-tyramine [5] [fold] |
| --- | --- | --- | --- | --- | --- | --- | --- | --- | --- | --- | --- | --- |
| C#CCN(C)Cc1ccccc1 [pargyline] | 2000 | 10 | MAO-B is preferentially inhibited | selective inhibitors at lower dosages, but are not selective inhibitors at higher dosages | clinically effective antidepressant agents |  |  |  |  |  |  |  |
| NC/C(=C\Cl)c1ccccc1 [(Z)-2-phenyl-3-chloroallylamine, (Z)-2-Phenyl-3-chloroallylamine] | 500000 |  |  |  |  | did not show time-dependent inhibitory kinetics |  |  |  |  |  |  |
| C#CCN(C)CCCOc1ccc(Cl)cc1Cl [clorgyline, reference compound] | 100 |  |  |  | clinically effective antidepressant agents |  | 87 | 84 | 20 | 64 | 5.2 | 5.6 |
